Data: US20210093715A1, “ANTI-ANGIOGENESIS THERAPY FOR THE TREATMENT OF BREAST CANCER” (Genentech, Inc., priority 2008, published 2021)
Where two headings read alike, the source gives them in different places.

Legend:
[1] = test system: previously untreated locally recurrent or metastatic HER2-negative breast cancer; assay: RIBBON1 randomized phase III trial, efficacy (PFS, ORR, OS) of bevacizumab or placebo with chemotherapy; format: in vivo, human; settings: for % of deaths: overall survival analysis; for ORR (%) / ORR, number of patients with objective response: patients with measurable disease; for median duration of objective response: among responders; for PFS compared to chemotherapies alone (in words): bevacizumab added to capecitabine, taxane or anthracycline-based chemotherapy, 1st-line
Description: (§1) The primary objective of the study was to determine the clinical benefit of the addition of bevacizumab to standard chemotherapy regimes for previously untreated metastatic breast cancer, as measured by PFS based on investigator tumor assessment. See, e.g., O'Shaughnessy and Brufsky, (2008), Clinical Breast Cancer, 8(4): 370-373. The trial comprised two study groups that evaluated AVASTIN® with different types of chemotherapies in women who had not previously received chemotherapy for their advanced HER2-negative breast cancer. In the first study group, women received either AVASTIN or placebo in combination with taxane or anthracycline-based chemotherapies. In the second study group, women received either AVASTIN or placebo in combination with capecitabine chemotherapy. The analysis of this example was based on information from 1237 patients. These trials evaluated the efficacy of bevacizumab (AVASTIN®) as therapy for patients previously untreated metastic breast cancer.
(§2) In the RIBBON1 trial, the following treatment protocol was used:
(§3) Arm A: bevacizumab 15 mg/kg IV on day 1 of each 21-day cycle and either cohort 1, cohort 2 or cohort 3;
(§4) Arm B: placebo IV on day 1 of each 21-day cycle and either cohort 1, cohort 2 or cohort 3.
(§5) Cohort 1: Either of the following taxanes administered every 3 weeks
Paclitaxel protein-bound particles (Abraxane®) 260 mg/m^2 IV
(§6) Cohort 2: Any of the following anthracycline-based combination chemotherapies, for subjects previously untreated with anthracyclines, every 3 weeks:
FEC: 5-fluorouracil 500 mg/m^2 IV, epirubicin 90-100 mg/m^2 IV and cyclophosphamide 500 mg/m^2 IV on Day 1
FAC: 5-fluorouracil 500 mg/m^2 IV, doxorubicin 50 mg/m^2 IV and cyclophosphamide 500 mg/m^2 IV on Day 1
AC: Doxorubicin 50-60 mg/m^2 IV and cyclophosphamide 500-600 mg/m^2 IV on Day 1
EC: Epirubicin 90-100 mg/m^2 IV and cyclophosphamide 500-600 mg/m^2 IV on Day 1
(§7) Cohort 3: Capecitabine 1000 mg/m^2 oral twice daily on Days 1-14 of each 3-week cycle.
All subjects had histologically or cytologically confirmed adenocarcinoma of the breast, subjects may have had either measureable (per the Response Evaluation Criteria in Solid Tumors (RECIST)) or non-measureable locally recurrent or metastatic disease. The locally recurrent disease was not amenable to resection with curative intent.
The trial was conducted worldwide (at least 22 countries) and accrued 1237 subjects/patients (Taxane (T): 307; Anthracycline (Anthra): 315; and Capecitabine (Cap): 615).
The primary endpoint of the study was progression free survival (PFS), defined as the time from randomization to disease progression or to death, based on investigator assessment. Kaplan-Meier methodology can be used to estimate median PFS for each treatment arm. In certain embodiments, the hazard ratio for PFS will be estimated using a stratified Cox regression model with the same stratification factors used in the stratified log-rank test. Analyses of PFS in each cohort is performed at the two-sided α=0.05 level. Time-to-event data are compared between treatment arms using a stratified log-rank test. The Kaplan-Meier method is used to estimate duration of time-to-event data. The 95% confidence intervals for median time-to-event are computed using the Brookmeyer-Crowley method. The HR for time-to-event data are estimated using a stratified Cox regression model.
(§8) The secondary endpoints included objective response rate (ORR), one-year survival rate, overall survival (OS), and PFS based on IRC assessment and safety. OS is defined as the time from randomization until death from any cause. ORR is defined as the percentage of patients who achieved a complete or partial response confirmed ≥28 days after initial documentation of response. One-year survival rate is assessed between treatment arms using the normal approximation method. ORR in patients with measurable disease at baseline is compared using the stratified Mantel-Haenszel χ2 test.

[2] = test system: previously untreated locally recurrent or metastatic HER2-negative breast cancer
Description: as §1, §2, §3, §4, §5, §6, §7
as §8, with “test. Randomization stratification factors are included in all stratified analyses.” for “test.”

[3] = test system: previously treated metastatic breast cancer; settings: capecitabine + bevacizumab vs capecitabine alone; cited from earlier work
metastatic breast cancer [4] = settings: weekly paclitaxel + bevacizumab vs paclitaxel alone; cited from earlier work
metastatic breast cancer [5] = settings: docetaxel + bevacizumab (7.5 and 15 mg/kg q3w) vs docetaxel alone; cited from earlier work
[6] = Cap cohort, BV arm = bevacizumab + capecitabine, PL arm = placebo + capecitabine, investigator assessment
[7] = Cap cohort, BV or placebo + capecitabine
[8] = Cap cohort, second PFS figure of b186, assessor not stated (FIG. 2 shows INV and IRC)
[9] = T/Anthra cohort, BV or placebo + taxane/anthracycline

CCCCCOC(=O)Nc1nc(=O)n([C@@H]2O[C@H](C)[C@@H](O)[C@H]2O)cc1F [Cap, capecitabine, reference compound]
1-yr survival rate (%) ([1]; Cap cohort): 74% | PFS Median (months) [1, 6]: 5.7 months | Median OS (months) [1, 7]: 21.2 months | % of deaths ([1]; Cap cohort): 35% | ORR (%) [1, 7]: (23.6%) | ORR, number of patients with objective response [1, 7]: 38 | PFS [1, 8]: 6.2 months | median duration of objective response ([1]; Capecitabine cohort): 7.2 months | AEs leading to death (excludes AEs related to metastatic breast cancer progression) ([2]; Cape cohort): 2.5% | AEs leading to study drug (PL or BV) discontinuation ([2]; female, human, in vivo): 11.9% | SAEs ([2]; female, human, in vivo): 18.9% | Selected AEs (previously shown to be associated with bevacizumab) ([2]; female, human, in vivo): 9.0%

BV: recombinant humanized anti-VEGF monoclonal antibody, human IgG1 framework with CDRs from murine antibody A.4.6.1
PFS (primary objective) [3]: failed to meet its primary objective of improving PFS | overall response rate (ORR) [3]: higher | progression-free survival (PFS) (metastatic breast cancer [4]): significantly longer | mPFS, mo (median PFS) ([1]; Anthra subgroup, BV or placebo + anthracycline-based chemotherapy): 9.2 mo | PFS HR (95% CI) ([1]; Anthra subgroup, BV vs PL): 0.55 (0.40-0.74) | PFS Median (months) [1, 6]: 8.6 months | Median OS (months) [1, 7]: 29.0 months | PFS HR (95% CI) ([1]; Cap cohort, bevacizumab 15 mg/kg q3w + capecitabine vs placebo + capecitabine, investigator assessment): 0.688 | OS (HR, 95% CI) ([1]; Cap cohort, bevacizumab + capecitabine vs placebo + capecitabine): 0.85 (0.63-1.14) | OS (HR, 95% CI) ([1]; Cap cohort, bevacizumab + capecitabine vs placebo + capecitabine, listed as B): 0.847 | % of deaths ([1]; Cap cohort): 30% | ORR (%) [1, 7]: (35.4%) | PFS [1, 8]: 9.7 months | median duration of objective response ([1]; Capecitabine cohort): 9.2 months | PFS Median (months) ([1]; T/Anthra cohort, BV arm = bevacizumab + taxane/anthracycline, PL arm = placebo + taxane/anthracycline, investigator assessment): 9.2 months | Median OS (months) [1, 9]: 25.2 months | PFS HR (95% CI) ([1]; T/Anthra cohort, bevacizumab 15 mg/kg q3w + taxane/anthracycline vs placebo + taxane/anthracycline, investigator assessment): 0.644 | OS (HR, 95% CI) ([1]; T/Anthra cohort, bevacizumab + taxane/anthracycline vs placebo + taxane/anthracycline): 1.03 (0.77-1.38) | OS (HR, 95% CI) ([1]; T/Anthra cohort, bevacizumab + taxane/anthracycline vs placebo + taxane/anthracycline, listed as B): 1.032 | % of deaths ([1]; T/Anthra cohort): 34% | ORR (%) [1, 9]: (51.3%) | ORR, number of patients with objective response [1, 9]: 177 | PFS ([1]; T/Anthra cohort, second PFS figure of b186, assessor not stated (FIG. 3 shows INV and IRC)): 10.7 months | mPFS, mo (median PFS) ([1]; Taxane subgroup, BV or placebo + docetaxel or Abraxane): 9.2 mo | PFS HR (95% CI) ([1]; Taxane subgroup, BV vs PL): 0.75 (0.56-1.01) | PFS compared to chemotherapies alone (in words) [1]: statistically-significant improvement in PFS | PFS compared to chemotherapies alone (in words) ([1]; listed as AVASTIN®): increased the time women lived without their disease advancing | median duration of objective response ([1]; taxane/anthracycline cohort): 8.3 months | AEs leading to study drug (PL or BV) discontinuation ([2]; Anthra cohort): 14.3% | SAEs ([2]; Anthra cohort): 22.4% | AEs leading to study drug (PL or BV) discontinuation ([2]; Cape cohort): 11.9% | SAEs ([2]; Cape cohort): 24.3% | AEs leading to death (excludes AEs related to metastatic breast cancer progression) ([2]; Taxane cohort): 3.4% | AEs leading to study drug (PL or BV) discontinuation ([2]; Taxane cohort): 24.1% | SAEs ([2]; Taxane cohort): 41.4% | Safety ([2]; bevacizumab + chemotherapy, all cohorts): consistent with results of prior bevacizumab trials | progression-free survival (PFS) (metastatic breast cancer [5]): longer
